Assay [1] has as its system SKOV3-Luc ovarian cancer cells. The assay is described as follows: SKOV3-Luc ovarian cancer xenograft model. Particulars: cisplatin 2.5 mg/kg, Antibody 1 20 mg/kg once a week intraperitoneal. The format is in vivo, mice. As for the experimental part: SKOV3-Luc is a human ovary cancer cell line that expresses firefly luciferase gene. SKOV3-Luc cells are often used in vivo to establish human ovarian adenocarcinoma tumor growth.
SKOV3-Luc ovarian cancer cells were mixed 1:1 with matrigel and implanted subcutaneously in the right rear flank of athymic nude female mice at 3.0×10^6 cells per injection. Mice were randomized into 4 groups at baseline according to tumor volume after the xenografts were grown to an average tumor volume of 200 mm^3 Mice received either control IgG4 antibody (2.5 mg/kg once a week), cisplatin (2.5 mg/kg once a week), Antibody 1 (20 mg/kg once a week), or a combination of cisplatin (2.5 mg·kg once a week) and Antibody 1 (20 mg/kg once a week) by intraperitoneal injection.

For the next assay, the target named is T1, human CXCR2 (Homo sapiens, UniProt P25025).
T1 construct: expressed in transfected cells; host or cells: U937 monocytic cell line, retrovirally transduced (U937-huCXCR2)
T1 sequence (P25025 1-360): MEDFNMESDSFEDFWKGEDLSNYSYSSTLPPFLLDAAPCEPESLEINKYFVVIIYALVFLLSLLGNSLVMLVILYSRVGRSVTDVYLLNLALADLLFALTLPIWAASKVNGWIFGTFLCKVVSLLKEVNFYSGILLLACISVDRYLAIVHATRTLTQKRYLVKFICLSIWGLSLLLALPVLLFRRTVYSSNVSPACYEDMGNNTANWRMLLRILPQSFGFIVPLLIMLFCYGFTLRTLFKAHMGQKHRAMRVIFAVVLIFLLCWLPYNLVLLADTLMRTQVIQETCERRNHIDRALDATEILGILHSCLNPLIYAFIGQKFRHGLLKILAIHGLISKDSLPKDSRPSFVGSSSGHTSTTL
The assay is described as follows: U937-huCXCR2 FLIPR activity of wild type and mutant human CXCL8. Type of assay: cell-based. Particulars: activity of the CXCL8 variant itself on U937-huCXCR2 cells. As for the experimental part: Wild type and mutant human CXCL8 are tested for biologic activity and for neutralization by Antibody 1 using the U937-huCXCR2 assay. U937-huCXCR2 is a monocytic cell line transduced with retrovirus for expression of human CXCR2. A description of the U937-huCXCR2 assay is found below under Neutralizing Assays.
CXCL8 mutants are serially diluted in Assay Buffer containing 0.2% BSA in wells of v-bottom 96-well polypropylene plates. Ligand concentrations are 3 times the final assay concentration (final assay concentrations range from 300 to 0.0051 nM). A cell plate and a ligand plate are loaded into a Fluorescent Imaging Plate Reader (FLIPR-3, Molecular Devices) programmed to transfer 50 μL of ligand to wells of the cell plate. Fluorescence is recorded at 1 second intervals for 90 seconds. The change in fluorescence [delta relative fluorescence units (DRFU), Max RFU-Min RFU] is calculated from images 10 to 90. DRFU versus log (ligand concentration) is plotted and EC50 values are determined by nonlinear regression using Graph Pad Prism. Assays are performed in triplicate over three assay plates.

Consider 2 molecules from patent US9290570B2, “Pan-ELR+ CXC Chemokine Antibodies” (Eli Lilly and Company, priority 2013, dated 2016).

In the case of `N.N.[Cl][Pt][Cl]` [Cisplatin, cisplatin], the “tumor growth inhibition compared to isotype control” value in assay [1] was “did not show statistically significant tumor growth inhibition”.
Turning to “R6A: R6A point mutant of human CXCL8 (SEQ ID NO: 27) [Antibody R6A]”, in the assay with human CXCR2, the “U937 FLIPR activity (EC50)” value is “Not Active”.
